Source: US6352958B1, “Cycloimido-substituted benzofused heterocyclic herbicides” (FMC Corporation, priority 1997, dated 2002)

Experiments:
Format in all cases: in vivo
[1] = test system: common cocklebur (Xanthium strumarium L.); assay: Postemergence herbicidal activity, cocklebur; settings: rate of application 0.3 Kg/Ha, rated after 12-17 days
[2] = test system: field corn (Zea mays var. Pioneer 3732); assay: Postemergence herbicidal activity, corn; settings: rate of application 0.3 Kg/Ha, rated after 12-17 days
[3] = test system: common chickweed (Stellaria media); assay: Preemergence herbicidal activity, chickweed; settings: Rate of Application 0.3 Kg/Ha, examined after 12-17 days
[4] = test system: blackgrass (Aloepecurus myosuroides); assay: Preemergence herbicidal activity, blackgrass; settings: Rate of Application 0.3 Kg/Ha, examined after 12-17 days
[5] = test system: Johnsongrass (Sorghum halepense); assay: Postemergence herbicidal activity, johnsongrass; settings: rate of application 0.3 Kg/Ha, rated after 12-17 days
[6] = test system: morningglory (Ipomea lacunosa or Ipomea hederacea); assay: Postemergence herbicidal activity, morningglory; settings: rate of application 0.3 Kg/Ha, rated after 12-17 days
[7] = test system: Johnsongrass (Sorghum halepense); assay: Preemergence herbicidal activity, johnsongrass; settings: Rate of Application 0.3 Kg/Ha, examined after 12-17 days
[8] = test system: green foxtail (Setaria viridis); assay: Postemergence herbicidal activity, green foxtail; settings: rate of application 0.3 Kg/Ha, rated after 12-17 days
[9] = test system: green foxtail (Setaria viridis); assay: Preemergence herbicidal activity, green foxtail; settings: Rate of Application 0.3 Kg/Ha, examined after 12-17 days
[10] = test system: morningglory (Ipomea lacunosa or Ipomea hederacea); assay: Preemergence herbicidal activity, morningglory; settings: Rate of Application 0.3 Kg/Ha, examined after 12-17 days
[11] = test system: soybean (Glycine max var. Winchester); assay: Preemergence herbicidal activity, soybean; settings: Rate of Application 0.3 Kg/Ha, examined after 12-17 days
[12] = test system: wheat (Triticum aestivum var. Lew); assay: Preemergence herbicidal activity, wheat; settings: Rate of Application 0.3 Kg/Ha, examined after 12-17 days
[13] = test system: soybean (Glycine max var. Winchester); assay: Postemergence herbicidal activity, soybean; settings: rate of application 0.3 Kg/Ha, rated after 12-17 days
[14] = test system: common cocklebur (Xanthium strumarium L.); assay: Preemergence herbicidal activity, cocklebur; settings: Rate of Application 0.3 Kg/Ha, examined after 12-17 days
[15] = test system: common chickweed (Stellaria media); assay: Postemergence herbicidal activity, chickweed; settings: rate of application 0.3 Kg/Ha, rated after 12-17 days
[16] = test system: field corn (Zea mays var. Pioneer 3732); assay: Preemergence herbicidal activity, corn; settings: Rate of Application 0.3 Kg/Ha, examined after 12-17 days
[17] = test system: wheat (Triticum aestivum var. Lew); assay: Postemergence herbicidal activity, wheat; settings: rate of application 0.3 Kg/Ha, rated after 12-17 days
[18] = test system: velvetleaf (Abutilon theophrasti); assay: Postemergence herbicidal activity, velvetleaf; settings: rate of application 0.3 Kg/Ha, rated after 12-17 days
[19] = test system: velvetleaf (Abutilon theophrasti); assay: Preemergence herbicidal activity, velvetleaf; settings: Rate of Application 0.3 Kg/Ha, examined after 12-17 days
[20] = test system: blackgrass (Aloepecurus myosuroides); assay: Postemergence herbicidal activity, blackgrass; settings: rate of application 0.3 Kg/Ha, rated after 12-17 days

Row | Compound | Postemergence herbicidal activity (% control) XANPE [1] | Postemergence herbicidal activity (% control) CRN [2] | PREEMERGENCE HERBICIDAL ACTIVITY (% CONTROL) STEME [3] | PREEMERGENCE HERBICIDAL ACTIVITY (% CONTROL) ALOMY [4] | Postemergence herbicidal activity (% control) SORHA [5] | Postemergence herbicidal activity (% control) IPOSS [6] | PREEMERGENCE HERBICIDAL ACTIVITY (% CONTROL) SORHA [7] | Postemergence herbicidal activity (% control) SETVI [8] | PREEMERGENCE HERBICIDAL ACTIVITY (% CONTROL) SETVI [9] | PREEMERGENCE HERBICIDAL ACTIVITY (% CONTROL) IPOSS [10] | PREEMERGENCE HERBICIDAL ACTIVITY (% CONTROL) SOY [11] | PREEMERGENCE HERBICIDAL ACTIVITY (% CONTROL) WHT [12] | Postemergence herbicidal activity (% control) SOY [13] | PREEMERGENCE HERBICIDAL ACTIVITY (% CONTROL) XANPE [14] | Postemergence herbicidal activity (% control) STEME [15] | PREEMERGENCE HERBICIDAL ACTIVITY (% CONTROL) CRN [16] | Postemergence herbicidal activity (% control) WHT [17] | Postemergence herbicidal activity (% control) ABUTH [18] | PREEMERGENCE HERBICIDAL ACTIVITY (% CONTROL) ABUTH [19] | Postemergence herbicidal activity (% control) ALOMY [20]
1 | Cn1c(C(F)(F)F)cc(=O)n(-c2c(F)cc(Cl)c3c2nc(C(F)(F)F)n3C)c1=O [Compound 399] | 100% | 70% | 100% | 60% | 60% | 100% | 0% | 70% | 100% | 95% | 95% | 80% | 95% | 70% | 100% | 95% | 30% | 100% | 100% | 50%
2 | Cn1c(C(F)(F)F)cc(=O)n(-c2c(F)cc(Cl)c3oc(N)nc23)c1=O [Compound 38] | 45% | 60% | 0% | 30% | 50% | 100% | 60% | 40% | 75% | 100% | 60% | 50% | 70% | 70% | 0% | 80% | 35% | 100% | 100% | 20%
3 | CCc1nc2c(-n3c(=O)cc(C(F)(F)F)n(C)c3=O)c(F)cc(Cl)c2o1 [Compound 25] | 100% | 90% | 100% | 90% | 90% | 100% | 100% | 100% | 100% | 100% | 100% | 100% | 100% | 95% | 100% | 100% | 80% | 100% | 100% | 80%
4 | CCOC(=O)c1cc2cccc(-n3c(=O)cc(C(F)(F)F)n(C)c3=O)c2o1 [Compound 267] | 10% | 50% | 0% | 50% | 20% | 40% | 0% | 30% | 5% | 10% | 0% | 10% | 50% | 50% | 10% | 20% | 15% | 80% | 10% | 20%
5 | Cn1c(C(F)(F)F)cc(=O)n(-c2c(F)cc(Cl)c3cc(C(C)(C)O)oc23)c1=O [Compound 242] | 100% | 100% | 100% | 100% | 100% | 100% | 100% | 100% | 100% | 100% | 100% | 100% | 100% | 100% | 100% | 100% | 100% | 100% | 100% | 100%
